≈ marks a conversion by molar mass, not a printed value. Structures can show the parent of a compound that is named as a salt.
How the values were obtained:
Nav1.6 [1] = target: T1, Nav1.6 (Homo sapiens, UniProt Q9UQD0); assay: % block of Nav1.6 at 100 μM and IC50 (NaV1.6); format: cell-based; conditions: for inhibition at 100 µM: 100 μM compound
Description: Evaluation of Compounds for % Block of Nav1.6 at 100 μM
Compounds of the present invention were tested in an assay for % block of Nav1.6 at a concentration of 100 μM compound. Table 1 also indicates the melting point ranges for some compounds.
Some such compounds correspond to a compound of Formula III, wherein R9 is substituted with a halogen, a nitro or a CF3 group. In comparing MV1089, MV1090 and MV1091, it is shown that compounds of Formula III where R3 is H result in higher % block than when R3 is substituted. e.g., by OCH3. In comparing MV1066, MV1084, MV1085, MV1086, MV1087 and MV1088, it is shown that compounds of Formula III where R9 is halogen, a nitro or a CF3 group result in higher % block than when R9 is OCH3, COOH or CH3.

Solubility = format: physicochemical
Chemical stability = format: physicochemical; conditions: after 24 h at pH 7.4
CYP3A4 = CYP3A4 (Homo sapiens, UniProt P08684); assay: Metabolic stability (CYP3A4); format: in vitro ADME; conditions: CYP3A4, 1 hr
CYP3A4, sequence (P08684 whole entry, species assumed): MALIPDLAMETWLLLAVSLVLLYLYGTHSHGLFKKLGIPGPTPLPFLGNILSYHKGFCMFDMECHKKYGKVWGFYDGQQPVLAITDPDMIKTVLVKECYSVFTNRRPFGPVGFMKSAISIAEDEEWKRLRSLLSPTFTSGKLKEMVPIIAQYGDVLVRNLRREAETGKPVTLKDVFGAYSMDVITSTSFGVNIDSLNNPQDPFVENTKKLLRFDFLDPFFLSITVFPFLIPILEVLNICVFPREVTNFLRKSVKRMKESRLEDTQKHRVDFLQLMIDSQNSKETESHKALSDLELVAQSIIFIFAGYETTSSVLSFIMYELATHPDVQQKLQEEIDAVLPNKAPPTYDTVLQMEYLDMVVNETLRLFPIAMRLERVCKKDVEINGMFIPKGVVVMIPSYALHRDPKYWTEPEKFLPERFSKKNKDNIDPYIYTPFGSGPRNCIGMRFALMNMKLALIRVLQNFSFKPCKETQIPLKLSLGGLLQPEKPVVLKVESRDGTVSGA

[2] = test system: maximal electroshock (MES) seizures; assay: MES test, comparison compounds (species not stated); format: in vivo
Description: The MES is a model for generalized tonic-clonic seizures and provides an indication of a compound's ability to prevent seizure spread when all neuronal circuits in the brain are maximally active. These seizures are highly reproducible and are electrophysiologically consistent with human seizures. For an MES test, a drop of anesthetic/electrolyte solution (0.5% tetracaine hydrochloride in 0.9% saline) is applied to the eyes of each animal prior to placement of corneal electrodes Electrical stimulus in the MES test may be 50 mA, 60 Hz, for mice and 150 mA, 60 Hz, for rats delivered for 0.2 s. Abolition of the hindleg tonic extensor component of the seizure was used as the endpoint. Mice may be initially tested at various intervals following various doses, e.g., 30, 100 and 300 mg/kg of test compound given by intraperitoneal (IP) injection while rats are initially screened at a fixed dose of 30 mg/kg

[3] = test system: Metrazol-induced clonic seizures; assay: scM test, comparison compounds (species not stated); format: in vivo
Description: Subcutaneous injection of the convulsant Metrazol produces clonic seizures in laboratory animals. […] Animals may be pretreated with various doses of the test compound given by ip injection. At a previously determined TPE (time to peak) of the test compound, the dose of Metrazol which will induce convulsions in 97% of animals (CD97:85 mg/kg mice) may be injected into a loose fold of skin in the midline of the neck. The animals may be placed in isolation cages to minimize stress and observed for the next 30 min for the presence or absence of a seizure. An episode of clonic spasms, approximately 3-5 seconds, of the fore and/or hindlimbs, jaws, or vibrissae may be taken as the endpoint. […] The scM test represents acute animal seizures.

[4] = test system: 6 Hz psychomotor seizures; assay: 6 Hz test, comparison compounds (species not stated); format: in vivo; conditions: species and current not stated
Description: Compounds were tested using a 6 Hz psychomotor seizure test. […] For example, both the MES and scM models are insensitive to levetiracetam, a compound considered potentially useful in the management of refractory seizures. […] Thus, the 6 Hz test can serve as a therapy resistant screening paradigm of acute seizure activity.

[5] = Tox, comparison compounds (species not stated); format: in vivo
[6] = target: T2, rat NaV1.6 sodium channels (Rattus norvegicus, UniProt O88420); assay: Dose response on rat NaV1.6 channels in HEK293 cells; format: cell-based; conditions: rat Nav1.6 channel
T2 construct: expressed in transfected cells; host or cells: HEK293
T2 sequence (O88420 whole entry): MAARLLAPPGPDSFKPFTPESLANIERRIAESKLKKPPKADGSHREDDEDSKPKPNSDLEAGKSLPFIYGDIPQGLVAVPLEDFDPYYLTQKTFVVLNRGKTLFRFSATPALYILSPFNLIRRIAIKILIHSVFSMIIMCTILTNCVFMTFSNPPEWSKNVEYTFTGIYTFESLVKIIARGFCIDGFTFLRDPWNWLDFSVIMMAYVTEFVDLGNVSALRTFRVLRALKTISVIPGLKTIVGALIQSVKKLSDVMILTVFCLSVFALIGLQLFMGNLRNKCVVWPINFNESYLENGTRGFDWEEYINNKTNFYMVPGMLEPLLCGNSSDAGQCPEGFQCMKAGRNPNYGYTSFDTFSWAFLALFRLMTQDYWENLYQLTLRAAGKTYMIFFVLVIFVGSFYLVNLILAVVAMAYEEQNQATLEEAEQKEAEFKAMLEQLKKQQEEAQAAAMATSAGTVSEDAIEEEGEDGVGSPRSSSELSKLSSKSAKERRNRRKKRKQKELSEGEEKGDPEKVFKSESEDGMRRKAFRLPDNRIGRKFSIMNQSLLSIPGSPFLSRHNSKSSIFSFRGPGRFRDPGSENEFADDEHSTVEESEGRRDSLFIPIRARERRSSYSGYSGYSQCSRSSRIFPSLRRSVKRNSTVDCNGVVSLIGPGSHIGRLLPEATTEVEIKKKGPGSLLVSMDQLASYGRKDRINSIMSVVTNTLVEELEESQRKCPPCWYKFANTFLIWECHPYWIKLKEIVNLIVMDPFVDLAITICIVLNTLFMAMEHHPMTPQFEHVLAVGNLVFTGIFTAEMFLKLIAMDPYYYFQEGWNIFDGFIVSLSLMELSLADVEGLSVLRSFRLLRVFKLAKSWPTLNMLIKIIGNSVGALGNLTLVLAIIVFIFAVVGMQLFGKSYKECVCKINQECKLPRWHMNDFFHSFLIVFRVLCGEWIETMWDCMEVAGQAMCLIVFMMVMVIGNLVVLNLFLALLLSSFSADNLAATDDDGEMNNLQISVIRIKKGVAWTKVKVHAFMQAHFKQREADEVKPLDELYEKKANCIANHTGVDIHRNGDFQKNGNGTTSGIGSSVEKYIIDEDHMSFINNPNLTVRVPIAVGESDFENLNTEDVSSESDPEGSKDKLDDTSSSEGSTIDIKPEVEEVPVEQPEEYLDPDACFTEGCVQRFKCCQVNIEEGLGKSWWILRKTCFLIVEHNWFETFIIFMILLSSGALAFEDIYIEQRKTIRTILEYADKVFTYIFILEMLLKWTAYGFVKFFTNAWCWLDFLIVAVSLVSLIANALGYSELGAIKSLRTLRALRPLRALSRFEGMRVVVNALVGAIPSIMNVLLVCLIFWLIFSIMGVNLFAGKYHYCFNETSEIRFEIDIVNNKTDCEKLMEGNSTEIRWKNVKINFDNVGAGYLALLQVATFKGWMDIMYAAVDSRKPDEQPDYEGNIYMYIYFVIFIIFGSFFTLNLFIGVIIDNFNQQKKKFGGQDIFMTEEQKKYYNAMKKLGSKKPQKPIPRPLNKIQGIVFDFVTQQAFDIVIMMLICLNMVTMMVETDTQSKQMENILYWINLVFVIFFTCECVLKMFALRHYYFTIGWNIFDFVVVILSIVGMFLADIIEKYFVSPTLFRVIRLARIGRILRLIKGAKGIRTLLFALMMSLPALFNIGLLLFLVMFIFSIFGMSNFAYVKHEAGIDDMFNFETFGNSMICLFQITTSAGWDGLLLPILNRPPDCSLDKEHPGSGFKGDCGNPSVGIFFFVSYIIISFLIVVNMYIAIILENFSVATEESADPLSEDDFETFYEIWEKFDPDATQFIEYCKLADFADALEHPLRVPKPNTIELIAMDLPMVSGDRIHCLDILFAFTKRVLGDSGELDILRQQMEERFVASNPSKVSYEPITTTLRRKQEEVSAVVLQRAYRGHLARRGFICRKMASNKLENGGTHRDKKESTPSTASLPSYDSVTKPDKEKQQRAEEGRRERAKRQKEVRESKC
Description: Evaluation of Dose Response and Activation Response Compounds on Rat NaV1.6 Channels in Human Embryonic Kidney Cells (HEK293).

NaV1.6 sodium channels = NaV1.6 sodium channels (Homo sapiens, UniProt Q9UQD0); assay: State-dependent inhibition: steady state inactivation, use-dependent block; format: cell-based; conditions: for use-dependent block: 20 Hz
Description: Evaluation of Compounds as State-Dependent Inhibitors
Use dependent block is an important characteristic for AED activity since it allows increased inhibition of sodium channels during increased neuronal activity as is observed during seizures.

Nav1.6 [7] = target: T1, Nav1.6; assay: High-throughput flux assay, Nav1.6; format: cell-based; conditions: human isoform;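 note: IC50 from the flux assay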
Description: (§1) Evaluation of Compounds on Human Isoforms Using a High-Throughput Flux Assay
(§2) Compounds were tested using a high-throughput flux assay across Nav1.5, Nav1.6 and Nav1.7.

NaV1.5 [8] = target: T3, NaV1.5 (Homo sapiens, UniProt Q14524); assay: High-throughput flux assay, NaV1.5; format: cell-based; conditions: human isoform;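 note: IC50 from the flux assay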
Description: as §1, §2

NaV1.7 [9] = target: T4, NaV1.7 (Homo sapiens, UniProt Q15858); assay: High-throughput flux assay, NaV1.7; format: cell-based; conditions: human isoform;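 note: IC50 from the flux assay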
T4 sequence (Q15858 whole entry, canonical isoform): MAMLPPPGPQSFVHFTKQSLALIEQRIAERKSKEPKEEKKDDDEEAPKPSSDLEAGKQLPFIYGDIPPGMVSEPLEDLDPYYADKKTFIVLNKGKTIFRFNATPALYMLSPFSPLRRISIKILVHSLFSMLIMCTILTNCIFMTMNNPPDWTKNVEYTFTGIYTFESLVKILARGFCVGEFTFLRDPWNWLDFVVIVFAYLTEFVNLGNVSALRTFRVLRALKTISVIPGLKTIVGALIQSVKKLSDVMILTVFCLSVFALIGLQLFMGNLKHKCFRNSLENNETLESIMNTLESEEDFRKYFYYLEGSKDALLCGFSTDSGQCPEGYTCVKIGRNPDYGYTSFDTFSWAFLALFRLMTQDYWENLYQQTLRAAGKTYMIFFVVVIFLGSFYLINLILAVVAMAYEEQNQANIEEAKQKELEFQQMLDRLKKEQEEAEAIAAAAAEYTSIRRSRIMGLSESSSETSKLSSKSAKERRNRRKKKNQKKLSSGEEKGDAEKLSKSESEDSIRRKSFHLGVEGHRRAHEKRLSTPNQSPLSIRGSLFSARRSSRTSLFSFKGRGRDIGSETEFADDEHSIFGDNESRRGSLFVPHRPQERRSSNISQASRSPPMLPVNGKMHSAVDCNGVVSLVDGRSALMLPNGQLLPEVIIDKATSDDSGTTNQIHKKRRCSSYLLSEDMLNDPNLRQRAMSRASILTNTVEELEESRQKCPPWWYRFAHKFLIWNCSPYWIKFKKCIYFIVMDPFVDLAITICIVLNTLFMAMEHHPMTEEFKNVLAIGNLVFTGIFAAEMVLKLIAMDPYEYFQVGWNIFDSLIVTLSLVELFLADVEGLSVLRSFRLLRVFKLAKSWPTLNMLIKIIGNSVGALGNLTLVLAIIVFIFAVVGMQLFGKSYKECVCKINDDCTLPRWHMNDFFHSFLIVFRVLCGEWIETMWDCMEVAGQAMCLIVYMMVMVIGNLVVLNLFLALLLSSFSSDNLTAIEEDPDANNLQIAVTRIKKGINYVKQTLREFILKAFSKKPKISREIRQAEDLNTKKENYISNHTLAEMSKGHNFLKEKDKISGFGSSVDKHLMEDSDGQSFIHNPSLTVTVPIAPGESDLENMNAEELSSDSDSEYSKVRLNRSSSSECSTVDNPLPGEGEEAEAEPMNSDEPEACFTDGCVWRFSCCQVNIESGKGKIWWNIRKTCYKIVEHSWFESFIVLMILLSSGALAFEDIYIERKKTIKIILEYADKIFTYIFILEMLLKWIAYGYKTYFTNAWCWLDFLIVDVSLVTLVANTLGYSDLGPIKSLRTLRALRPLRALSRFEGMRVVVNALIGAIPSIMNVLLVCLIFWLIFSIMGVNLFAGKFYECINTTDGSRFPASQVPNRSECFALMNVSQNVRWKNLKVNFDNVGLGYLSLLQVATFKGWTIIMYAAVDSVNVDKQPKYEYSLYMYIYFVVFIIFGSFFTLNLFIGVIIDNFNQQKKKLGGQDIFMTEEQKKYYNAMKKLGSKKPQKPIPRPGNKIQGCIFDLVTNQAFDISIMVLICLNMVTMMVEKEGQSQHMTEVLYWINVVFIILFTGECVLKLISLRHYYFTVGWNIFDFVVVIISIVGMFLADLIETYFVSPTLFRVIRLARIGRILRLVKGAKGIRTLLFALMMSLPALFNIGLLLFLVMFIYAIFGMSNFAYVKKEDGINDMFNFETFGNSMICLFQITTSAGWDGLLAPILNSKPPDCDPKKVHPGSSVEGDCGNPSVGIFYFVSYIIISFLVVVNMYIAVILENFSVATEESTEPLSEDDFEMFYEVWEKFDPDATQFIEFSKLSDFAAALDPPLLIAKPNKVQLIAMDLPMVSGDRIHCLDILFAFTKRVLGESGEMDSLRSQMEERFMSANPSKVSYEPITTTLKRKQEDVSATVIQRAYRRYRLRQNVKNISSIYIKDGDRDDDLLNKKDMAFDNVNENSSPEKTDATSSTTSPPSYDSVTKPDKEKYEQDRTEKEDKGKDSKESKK
Description: as §1, §2

Nav1.6 [10] = target: T1, Nav1.6; assay: Qube assay, NaV1.6; format: cell-based; conditions: human isoform; read-out: Qube EP IC50 NaV1.6
Description: (§3) Evaluation of Compounds on Human Isoforms Using Qube Assay.
(§4) Compounds were tested using a Qube assay across NaV1.5, NaV1.6 and NaV1.7.

NaV1.5 [11] = target: T3, NaV1.5; assay: Qube assay, NaV1.5; format: cell-based; conditions: human isoform; read-out: Qube EP IC50 NaV1.5
Description: as §3, §4

NaV1.7 [12] = target: T4, NaV1.7; assay: Qube assay, NaV1.7; format: cell-based; conditions: human isoform; read-out: Qube EP IC50 NaV1.7
Description: as §3, §4

[13] = test system: knock-in mouse carrying the human N1768D gain of function NaV1.6 mutation (spontaneous seizures); assay: Seizure suppression in NaV1.6 mutation knock-in mouse model; format: in vivo; conditions: 100 mg/kg
Description: In Vivo Evaluation for Seizure Suppression in a Human Gain of Function NaV1.6 Mutation Knock-In Mouse Model.
Compounds were tested in vivo for seizure suppression in a knock-in mouse carrying the human N1768D gain of function NaV1.6 mutation. These knock-in mice experience spontaneous seizures. All test compounds were evaluated at 100 mg/kg.

| Structure (SMILES) | inhibition at 100 µM (Nav1.6 [1]) | IC50 [6] | IC50 (Nav1.6 [7]) | IC50 (NaV1.7 [9]) | IC50 (Nav1.6 [10]) | IC50 (NaV1.7 [12]) | shift of half maximal voltage for inactivation (V1/2) compared to control (NaV1.6 sodium channels; 10 μM) | use-dependent block (NaV1.6 sodium channels) | ED50 [2] | ED50 [3] | ED50 [4] | Tox [5] | IC50 (NaV1.5 [8]) | IC50 (NaV1.5 [11]) | seizure suppression [13] | also measured |
| --- | --- | --- | --- | --- | --- | --- | --- | --- | --- | --- | --- | --- | --- | --- | --- | --- |
| c1ccc(-c2c[nH]c(-c3ccccc3)n2)cc1 [MV1115] | – | – | – | – | – | – | – | – | 61.7 mg/kg | 160 mg/kg | 47.2 mg/kg | 126 mg/kg | – | – | – | IC50 (Nav1.6 [1]; comparison compounds, read-out: IC50 (NaV1.6)): 32 µM; solubility (Solubility; pH 3, aqueous buffer): 237 µM (≈ 52.2 µg/mL); solubility (Solubility; pH 7.4, aqueous buffer): 175 µM (≈ 38.5 µg/mL); recovery at 24 h (Chemical stability): 94%; recovery at 1 hr (CYP3A4): 87% |
| COc1ccc(-c2nc(-c3ccccc3)c[nH]2)cc1 [MV1118] | – | – | – | – | – | – | – | – | 46.8 mg/kg | 142 mg/kg | 52.2 mg/kg | 223 mg/kg | – | – | – | – |
| Cc1nc(-c2ccc(Cl)cc2)[nH]c1-c1ccccc1 [MV1502, 2-(4-chlorophenyl)-4-methyl-5-phenyl-1H-imidazole hydrochloride] | 95% | 1.2 µM | 1.61 µM | 4.76 µM | 0.749 µM | 3.88 µM | – | – | – | – | – | – | 4.89 µM | 12.7 µM | suppressed seizures | shift of half maximal voltage for inactivation (V1/2) compared to control (NaV1.6 sodium channels; 1 μM): −9.3 mV |

More lines, main results first:

| inhibition at 100 µM (Nav1.6 [1]) | IC50 [6] | IC50 (Nav1.6 [7]) | IC50 (NaV1.7 [9]) | IC50 (Nav1.6 [10]) | IC50 (NaV1.7 [12]) | shift of half maximal voltage for inactivation (V1/2) compared to control (NaV1.6 sodium channels; 10 μM) | use-dependent block (NaV1.6 sodium channels) | Structure (SMILES) | ED50 [2] | ED50 [3] | ED50 [4] | Tox [5] | IC50 (NaV1.5 [8]) | IC50 (NaV1.5 [11]) | seizure suppression [13] | also measured |
| --- | --- | --- | --- | --- | --- | --- | --- | --- | --- | --- | --- | --- | --- | --- | --- | --- |
| 100% | 12 µM | 2.07 µM | 5.72 µM | 3.32 µM | 7.95 µM | −10.9 mV | profound use-dependent block | Cc1nc(-c2cccc(C(F)(F)F)c2)[nH]c1-c1ccccc1 [MV1504, 4-methyl-5-phenyl-2-[3-(trifluoromethyl)phenyl]-1H-imidazole hydrochloride] | – | – | – | – | 4.32 µM | 13.3 µM | suppressed seizures | – |
| 100% | 5.4 µM | 1.59 µM | 5.22 µM | 2.72 µM | 8.04 µM | −12.7 mV | profound use-dependent block | Cc1nc(-c2cccc(Cl)c2)[nH]c1-c1ccccc1 [MV1505, 2-(3-chlorophenyl)-4-methyl-5-phenyl-1H-imidazole] | – | – | – | – | 3.64 µM | 10 µM | suppressed seizures | – |
